# Source: the kinase profiling compilation of Christmann-Franck et al. (2016)
# What was measured:
# Assay in all cases: KINOMEscan competition binding
# Conditions in all cases: compound 10.0 µM
# IKBKE (human) = IKBKE (human) (UniProt Q14164)
# [1] = tested on: RET (human), P07949 [M918T]
# [2] = tested on: ABL1 (human), P00519 [Y253F]
# CDK11B (human) = CDK11B (human) (UniProt P21127)
# AURKA (human) = AURKA (human) (UniProt O14965)
# MARK2 (human) = MARK2 (human) (UniProt Q7KZI7)
# PKN1 (human) = PKN1 (human) (UniProt Q16512)
# LIMK2 (human) = LIMK2 (human) (UniProt P53671)
# [3] = tested on: EGFR (human), P00533 [A750P; 747-749 del]
# PRKACA (human) = PRKACA (human) (UniProt P17612)
# PRKX (human) = PRKX (human) (UniProt P51817)
# MARK4 (human) = MARK4 (human) (UniProt Q96L34)
# ACVRL1 (human) = ACVRL1 (human) (UniProt P37023)
# RIPK1 (human) = RIPK1 (human) (UniProt Q13546)
# RPS6KA5 KD1 (human) = RPS6KA5 KD1 (human) (UniProt O75582)
# Sequence of RPS6KA5 KD1 (human) (O75582 whole entry, looked up): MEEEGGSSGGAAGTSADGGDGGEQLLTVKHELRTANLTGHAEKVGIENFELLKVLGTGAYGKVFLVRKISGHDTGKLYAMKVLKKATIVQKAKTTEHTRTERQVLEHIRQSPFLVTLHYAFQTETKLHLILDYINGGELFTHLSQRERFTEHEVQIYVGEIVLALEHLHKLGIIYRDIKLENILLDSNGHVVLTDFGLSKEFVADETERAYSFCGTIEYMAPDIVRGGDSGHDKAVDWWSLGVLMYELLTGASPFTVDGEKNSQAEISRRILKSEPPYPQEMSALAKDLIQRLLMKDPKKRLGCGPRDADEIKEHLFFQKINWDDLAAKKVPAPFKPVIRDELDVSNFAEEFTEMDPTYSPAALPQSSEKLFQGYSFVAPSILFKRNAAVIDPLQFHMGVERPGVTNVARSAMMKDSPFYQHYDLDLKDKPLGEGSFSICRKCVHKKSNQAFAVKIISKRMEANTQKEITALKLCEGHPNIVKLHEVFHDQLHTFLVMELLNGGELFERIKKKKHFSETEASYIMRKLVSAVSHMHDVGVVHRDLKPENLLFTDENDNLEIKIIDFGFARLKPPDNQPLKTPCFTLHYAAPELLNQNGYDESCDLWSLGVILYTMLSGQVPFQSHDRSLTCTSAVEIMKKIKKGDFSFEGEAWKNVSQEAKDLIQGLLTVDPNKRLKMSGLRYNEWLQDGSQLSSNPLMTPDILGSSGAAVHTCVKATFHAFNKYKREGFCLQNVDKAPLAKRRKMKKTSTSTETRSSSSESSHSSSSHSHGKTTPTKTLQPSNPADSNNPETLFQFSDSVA
# ROCK2 (human) = ROCK2 (human) (UniProt O75116)
# MAPKAPK5 (human) = MAPKAPK5 (human) (UniProt Q8IW41)
# [4] = tested on: FGFR3 (human), P22607 [G697C]
# CAMK2D (human) = CAMK2D (human) (UniProt Q13557)
# MAP4K3 (human) = MAP4K3 (human) (UniProt Q8IVH8)
# EGFR (human) = EGFR (human) (UniProt P00533)
# PKMYT1 (human) = PKMYT1 (human) (UniProt Q99640)
# Sequence of PKMYT1 (human) (Q99640 whole entry, looked up): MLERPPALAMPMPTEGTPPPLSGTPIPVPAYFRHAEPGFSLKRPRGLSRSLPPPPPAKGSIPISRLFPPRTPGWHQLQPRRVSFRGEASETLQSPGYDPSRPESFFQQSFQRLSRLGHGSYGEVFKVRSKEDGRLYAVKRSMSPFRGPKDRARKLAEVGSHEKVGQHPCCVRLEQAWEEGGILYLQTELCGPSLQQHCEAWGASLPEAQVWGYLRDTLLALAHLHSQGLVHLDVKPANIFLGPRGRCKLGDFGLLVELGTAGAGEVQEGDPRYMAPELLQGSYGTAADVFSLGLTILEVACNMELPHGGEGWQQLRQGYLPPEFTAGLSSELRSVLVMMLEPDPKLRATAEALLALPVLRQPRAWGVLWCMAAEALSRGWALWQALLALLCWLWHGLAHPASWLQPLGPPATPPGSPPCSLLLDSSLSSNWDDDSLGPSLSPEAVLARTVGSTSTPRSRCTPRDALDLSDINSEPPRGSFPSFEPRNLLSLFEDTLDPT
# TYRO3 (human) = TYRO3 (human) (UniProt Q06418)
# EIF2AK2 (human) = EIF2AK2 (human) (UniProt P19525)
# NEK6 (human) = NEK6 (human) (UniProt Q9HC98)
# PIK3C2B (human) = PIK3C2B (human) (UniProt O00750)
# FGFR4 (human) = FGFR4 (human) (UniProt P22455)
# PHKG1 (human) = PHKG1 (human) (UniProt Q16816)
# Sequence of PHKG1 (human) (Q16816 whole entry, looked up): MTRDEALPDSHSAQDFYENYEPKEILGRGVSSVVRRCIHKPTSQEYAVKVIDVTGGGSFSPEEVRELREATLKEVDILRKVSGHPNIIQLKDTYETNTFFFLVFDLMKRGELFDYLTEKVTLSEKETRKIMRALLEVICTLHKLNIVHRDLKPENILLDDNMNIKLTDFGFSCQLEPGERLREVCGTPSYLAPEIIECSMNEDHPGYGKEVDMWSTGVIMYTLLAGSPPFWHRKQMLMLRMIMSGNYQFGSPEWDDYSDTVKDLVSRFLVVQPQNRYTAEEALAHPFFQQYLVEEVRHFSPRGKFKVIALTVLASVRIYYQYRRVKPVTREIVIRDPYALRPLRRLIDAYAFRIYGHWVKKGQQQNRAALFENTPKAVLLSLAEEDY
# EPHB4 (human) = EPHB4 (human) (UniProt P54760)
# Sequence of EPHB4 (human) (P54760 whole entry, looked up): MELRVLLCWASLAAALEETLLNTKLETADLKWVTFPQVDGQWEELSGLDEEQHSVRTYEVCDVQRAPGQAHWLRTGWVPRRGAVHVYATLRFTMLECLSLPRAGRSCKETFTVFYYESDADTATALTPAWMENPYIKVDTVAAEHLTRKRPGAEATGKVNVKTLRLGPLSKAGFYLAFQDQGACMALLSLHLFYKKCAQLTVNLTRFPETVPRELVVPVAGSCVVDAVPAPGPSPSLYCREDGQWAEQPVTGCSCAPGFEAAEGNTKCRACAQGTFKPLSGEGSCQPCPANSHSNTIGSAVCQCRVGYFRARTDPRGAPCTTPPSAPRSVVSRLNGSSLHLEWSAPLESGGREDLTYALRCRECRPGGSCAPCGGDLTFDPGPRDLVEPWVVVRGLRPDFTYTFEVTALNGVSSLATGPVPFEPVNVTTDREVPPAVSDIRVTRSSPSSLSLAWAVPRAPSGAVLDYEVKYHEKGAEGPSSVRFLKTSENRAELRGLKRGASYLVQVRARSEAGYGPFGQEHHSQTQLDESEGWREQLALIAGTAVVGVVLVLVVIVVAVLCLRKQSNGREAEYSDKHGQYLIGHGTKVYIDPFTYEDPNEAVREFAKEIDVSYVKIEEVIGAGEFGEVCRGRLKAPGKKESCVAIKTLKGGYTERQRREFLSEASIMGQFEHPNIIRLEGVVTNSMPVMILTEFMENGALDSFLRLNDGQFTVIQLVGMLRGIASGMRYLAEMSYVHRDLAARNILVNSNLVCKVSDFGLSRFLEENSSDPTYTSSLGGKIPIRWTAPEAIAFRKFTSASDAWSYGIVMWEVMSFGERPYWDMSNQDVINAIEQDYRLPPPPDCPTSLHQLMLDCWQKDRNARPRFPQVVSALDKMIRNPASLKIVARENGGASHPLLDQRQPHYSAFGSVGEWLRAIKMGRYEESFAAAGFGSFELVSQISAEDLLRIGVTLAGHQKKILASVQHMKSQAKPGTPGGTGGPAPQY
# MST4 (human) = MST4 (human) (UniProt Q9P289)
# ALK (human) = ALK (human) (UniProt Q9UM73)
# ITK (human) = ITK (human) (UniProt Q08881)
# LIMK1 (human) = LIMK1 (human) (UniProt P53667)
# LCK (human) = LCK (human) (UniProt P06239)
# MAPK12 (human) = MAPK12 (human) (UniProt P53778)
# Sequence of MAPK12 (human) (P53778 whole entry, looked up): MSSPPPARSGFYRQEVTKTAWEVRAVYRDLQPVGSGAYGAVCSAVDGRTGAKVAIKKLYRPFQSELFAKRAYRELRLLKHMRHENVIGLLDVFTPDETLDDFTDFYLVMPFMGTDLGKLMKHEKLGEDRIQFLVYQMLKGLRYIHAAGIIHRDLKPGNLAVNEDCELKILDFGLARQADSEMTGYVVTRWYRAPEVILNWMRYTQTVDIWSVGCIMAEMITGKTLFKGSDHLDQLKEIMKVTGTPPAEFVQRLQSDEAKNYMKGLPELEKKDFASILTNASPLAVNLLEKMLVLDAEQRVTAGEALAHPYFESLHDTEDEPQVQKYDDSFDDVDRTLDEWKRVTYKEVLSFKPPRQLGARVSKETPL
# MAP2K1 (human) = MAP2K1 (human) (UniProt Q02750)
# PDGFRA (human) = PDGFRA (human) (UniProt P16234)
# CDK3 (human) = CDK3 (human) (UniProt Q00526)
# Sequence of CDK3 (human) (Q00526 whole entry, looked up): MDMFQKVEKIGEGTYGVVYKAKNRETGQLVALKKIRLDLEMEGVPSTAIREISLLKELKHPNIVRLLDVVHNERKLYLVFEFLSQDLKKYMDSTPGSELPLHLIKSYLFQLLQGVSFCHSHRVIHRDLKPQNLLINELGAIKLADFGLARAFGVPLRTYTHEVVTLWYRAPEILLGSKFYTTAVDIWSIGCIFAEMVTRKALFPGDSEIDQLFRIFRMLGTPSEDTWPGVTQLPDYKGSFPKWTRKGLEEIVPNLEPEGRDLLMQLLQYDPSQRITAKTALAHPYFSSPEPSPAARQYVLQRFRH
# STK10 (human) = STK10 (human) (UniProt O94804)
# TXK (human) = TXK (human) (UniProt P42681)
# INSR (human) = INSR (human) (UniProt P06213)
# [5] = tested on: ABL1 (human), P00519 [F317L]
# Sequence of CDK11B (human) (P21127 whole entry, looked up): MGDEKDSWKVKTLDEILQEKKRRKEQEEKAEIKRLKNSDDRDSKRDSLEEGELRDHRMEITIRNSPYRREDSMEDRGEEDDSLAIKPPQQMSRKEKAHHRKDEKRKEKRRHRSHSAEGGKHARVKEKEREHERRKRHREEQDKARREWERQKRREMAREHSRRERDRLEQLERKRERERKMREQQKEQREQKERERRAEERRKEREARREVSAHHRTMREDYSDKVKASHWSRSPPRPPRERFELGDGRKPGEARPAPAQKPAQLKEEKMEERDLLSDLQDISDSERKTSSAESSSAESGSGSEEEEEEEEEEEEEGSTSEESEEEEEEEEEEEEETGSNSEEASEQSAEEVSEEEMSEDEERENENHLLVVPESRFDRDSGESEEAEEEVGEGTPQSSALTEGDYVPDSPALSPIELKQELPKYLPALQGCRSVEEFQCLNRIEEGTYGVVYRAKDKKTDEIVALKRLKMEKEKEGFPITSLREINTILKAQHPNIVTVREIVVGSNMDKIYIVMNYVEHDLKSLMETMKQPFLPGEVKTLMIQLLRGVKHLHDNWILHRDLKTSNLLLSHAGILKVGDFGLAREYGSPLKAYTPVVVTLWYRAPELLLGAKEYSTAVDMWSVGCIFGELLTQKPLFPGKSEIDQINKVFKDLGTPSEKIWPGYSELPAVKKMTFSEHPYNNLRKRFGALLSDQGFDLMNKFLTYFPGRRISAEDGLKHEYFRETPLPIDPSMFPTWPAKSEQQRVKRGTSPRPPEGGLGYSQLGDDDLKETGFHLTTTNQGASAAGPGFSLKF
# Sequence of IKBKE (human) (Q14164 whole entry, looked up): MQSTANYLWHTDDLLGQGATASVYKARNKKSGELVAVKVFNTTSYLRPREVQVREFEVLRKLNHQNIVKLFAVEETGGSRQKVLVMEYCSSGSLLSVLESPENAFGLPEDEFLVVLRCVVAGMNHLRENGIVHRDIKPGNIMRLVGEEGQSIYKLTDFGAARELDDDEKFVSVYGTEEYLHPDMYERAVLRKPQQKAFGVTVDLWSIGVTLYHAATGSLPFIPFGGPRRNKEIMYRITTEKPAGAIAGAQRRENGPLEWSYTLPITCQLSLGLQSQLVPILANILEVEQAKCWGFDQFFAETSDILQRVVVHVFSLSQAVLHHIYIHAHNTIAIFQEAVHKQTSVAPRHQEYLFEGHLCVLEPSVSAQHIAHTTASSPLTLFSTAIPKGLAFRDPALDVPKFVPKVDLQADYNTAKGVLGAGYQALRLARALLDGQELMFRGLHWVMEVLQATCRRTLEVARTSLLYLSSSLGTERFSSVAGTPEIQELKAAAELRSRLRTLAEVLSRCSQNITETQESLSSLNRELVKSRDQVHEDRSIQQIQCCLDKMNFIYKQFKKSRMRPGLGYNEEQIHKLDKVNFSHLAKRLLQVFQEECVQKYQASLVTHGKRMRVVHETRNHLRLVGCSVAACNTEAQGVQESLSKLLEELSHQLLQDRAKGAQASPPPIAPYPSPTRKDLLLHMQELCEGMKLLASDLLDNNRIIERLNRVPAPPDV
smiles,measurement,setting,value
CN1C(=O)c2ccccc2N(C)c2nc(NS(=O)(=O)c3ccc(N)cc3)ncc21,"kinase still bound, per cent of control",IKBKE (human),100%
same,"kinase still bound, per cent of control",[1],100%
same,"kinase still bound, per cent of control",[2],100%
same,"kinase still bound, per cent of control",CDK11B (human),96%
same,"kinase still bound, per cent of control",AURKA (human),100%
same,"kinase still bound, per cent of control",MARK2 (human),100%
same,"kinase still bound, per cent of control",PKN1 (human),85%
same,"kinase still bound, per cent of control",LIMK2 (human),100%
same,"kinase still bound, per cent of control",[3],100%
same,"kinase still bound, per cent of control",PRKACA (human),100%
same,"kinase still bound, per cent of control",PRKX (human),94%
same,"kinase still bound, per cent of control",MARK4 (human),93%
same,"kinase still bound, per cent of control",ACVRL1 (human),100%
same,"kinase still bound, per cent of control",RIPK1 (human),100%
same,"kinase still bound, per cent of control",RPS6KA5 KD1 (human),99%
same,"kinase still bound, per cent of control",ROCK2 (human),100%
same,"kinase still bound, per cent of control",MAPKAPK5 (human),100%
same,"kinase still bound, per cent of control",[4],100%
same,"kinase still bound, per cent of control",CAMK2D (human),100%
same,"kinase still bound, per cent of control",MAP4K3 (human),100%
same,"kinase still bound, per cent of control",EGFR (human),100%
same,"kinase still bound, per cent of control",PKMYT1 (human),100%
same,"kinase still bound, per cent of control",TYRO3 (human),100%
same,"kinase still bound, per cent of control",EIF2AK2 (human),91%
same,"kinase still bound, per cent of control",NEK6 (human),100%
same,"kinase still bound, per cent of control",PIK3C2B (human),97%
same,"kinase still bound, per cent of control",FGFR4 (human),100%
same,"kinase still bound, per cent of control",PHKG1 (human),100%
same,"kinase still bound, per cent of control",EPHB4 (human),100%
same,"kinase still bound, per cent of control",MST4 (human),100%
same,"kinase still bound, per cent of control",ALK (human),100%
same,"kinase still bound, per cent of control",ITK (human),100%
same,"kinase still bound, per cent of control",LIMK1 (human),100%
same,"kinase still bound, per cent of control",LCK (human),100%
same,"kinase still bound, per cent of control",MAPK12 (human),100%
same,"kinase still bound, per cent of control",MAP2K1 (human),100%
same,"kinase still bound, per cent of control",PDGFRA (human),100%
same,"kinase still bound, per cent of control",CDK3 (human),100%
same,"kinase still bound, per cent of control",STK10 (human),100%
same,"kinase still bound, per cent of control",TXK (human),96%
same,"kinase still bound, per cent of control",INSR (human),95%
same,"kinase still bound, per cent of control",[5],100%
CN1C(=O)c2ccccc2N(C)c2nc(Nc3ccc(N4CCC(O)CC4)cc3)ncc21,"kinase still bound, per cent of control",IKBKE (human),87%
same,"kinase still bound, per cent of control",[1],4.2%
same,"kinase still bound, per cent of control",[2],1.9%
same,"kinase still bound, per cent of control",CDK11B (human),100%
same,"kinase still bound, per cent of control",AURKA (human),2.4%
same,"kinase still bound, per cent of control",MARK2 (human),51%
same,"kinase still bound, per cent of control",PKN1 (human),100%
same,"kinase still bound, per cent of control",LIMK2 (human),100%
same,"kinase still bound, per cent of control",[3],98%
same,"kinase still bound, per cent of control",PRKACA (human),100%
same,"kinase still bound, per cent of control",PRKX (human),93%
same,"kinase still bound, per cent of control",MARK4 (human),66%
same,"kinase still bound, per cent of control",ACVRL1 (human),100%
same,"kinase still bound, per cent of control",RIPK1 (human),100%
same,"kinase still bound, per cent of control",RPS6KA5 KD1 (human),100%
same,"kinase still bound, per cent of control",ROCK2 (human),86%
same,"kinase still bound, per cent of control",MAPKAPK5 (human),92%
same,"kinase still bound, per cent of control",[4],81%
same,"kinase still bound, per cent of control",CAMK2D (human),88%
same,"kinase still bound, per cent of control",MAP4K3 (human),45%
same,"kinase still bound, per cent of control",EGFR (human),100%
same,"kinase still bound, per cent of control",PKMYT1 (human),100%
same,"kinase still bound, per cent of control",TYRO3 (human),100%
same,"kinase still bound, per cent of control",EIF2AK2 (human),100%
same,"kinase still bound, per cent of control",NEK6 (human),96%
same,"kinase still bound, per cent of control",PIK3C2B (human),89%
same,"kinase still bound, per cent of control",FGFR4 (human),73%
same,"kinase still bound, per cent of control",PHKG1 (human),95%
same,"kinase still bound, per cent of control",EPHB4 (human),100%
same,"kinase still bound, per cent of control",MST4 (human),27%
same,"kinase still bound, per cent of control",ALK (human),100%
same,"kinase still bound, per cent of control",ITK (human),96%
same,"kinase still bound, per cent of control",LIMK1 (human),97%
same,"kinase still bound, per cent of control",LCK (human),50%
same,"kinase still bound, per cent of control",MAPK12 (human),100%
same,"kinase still bound, per cent of control",MAP2K1 (human),100%
same,"kinase still bound, per cent of control",PDGFRA (human),100%
same,"kinase still bound, per cent of control",CDK3 (human),100%
same,"kinase still bound, per cent of control",STK10 (human),100%
same,"kinase still bound, per cent of control",TXK (human),85%
same,"kinase still bound, per cent of control",INSR (human),80%
same,"kinase still bound, per cent of control",[5],20%
